# Assay results: patent US20090280068A1, “POLYMORPH OF 8-HYDROXY-5-[(1R)-1-HYDROXY-2-[[(1R)-2-(4-METHOXYPHENYL)-1-METHYLETHYL]AMINO]ETHYL]-2(1H)-QUINOLINONE MONOHYDROCHLORIDE” (Chiesi Farmaceutici S.p.A., priority 2008, published 2009)
# Test: Stability studies: storage under different relative humidity conditions, checked by XRPD pattern
# Assay type: physicochemical
# Details: solid stored at 25° C., 1 week each at 40%, 60%, 80%, 30%, 0% and 40% RH
# Protocol: The XRPD analyses were carried out on a PANanalytical X'pert Pro X-ray powder diffractometer using Cu Kα radiation. The instrument was equipped with a X'Celerator detector. A theta-two theta continuous scan from 2.5 degrees 2 theta to 40 degrees 2 theta was used. Each sample was prepared for analysis by placing it in a quartz sample holder. The XPRD patterns are reported in terms of degrees 2 theta (°2θ, accuracy ±0.1°), diffraction peak intensity (height, [cts]), full width at half maximum (FWHM, [°2θ]), interatomic spacing in angstroms (d-spacing, [Å]), and relative intensities (%). The relative intensity is recorded as the ratio of the peak intensity to that of the most intense peak.
# In order to check its thermodynamic stability, CHF 4226 crystal form D was stored at room temperature under different relative humidity (RH) conditions: • 40% RH. and 25° C. for 1 week • 60% RH. and 25° C. for 1 week • 80% RH and 25° C. for 1 week • 60% RH and 25° C. for 1 week • 40% RH and 25° C. for 1 week • 30% RH and 25° C. for 1 week • 0% RH. and 25° C. for 1 week • 40% RH and 25° C. for 1 week The thermodynamic stability of all the samples was checked by recording their XPRD pattern.
compound,measurement,value
"COc1ccc(C[C@@H](C)NC[C@H](O)c2ccc(O)c3[nH]c(=O)ccc23)cc1.Cl [CHF 4226 crystal form D, 8-hydroxy-5-[(1R)-1-hydroxy-2-[[(1R)-2-(4-methoxyphenyl)-1-methylethyl]amino]ethyl]-2(1H)-quinolinone monohydrochloride]",thermodynamic stability (XPRD pattern after storage),stable features under all stability screening conditions
